Assay results as given in patent US11390664B2, “Antibodies that potently neutralize hepatitis B virus and uses thereof” (priority 2015, dated 2022).

Assays:
[1] = tested on: HBV (genotype D); assay: HBV spreading in humanized uPA/SCID mice, treatment from 3 weeks post-infection; format: in vivo, uPA/SCID mice repopulated with primary human hepatocytes; conditions: for cccDNA measurements versus mice sacrificed 3 weeks post HBV infection: treated from week 3 to week 9 post-infection
[2] = tested on: HBsAg serotypes (adw, ady and ayw); assay: ELISA binding to HBsAg serotypes; parameters: species or system hepatitis B virus; conditions: similar and low EC50 values
[3] = tested on: HBV; assay: HBV neutralization on differentiated HepaRG cells; format: cell-based, hepatitis B virus; conditions: HBC34 result at 5 and 0.5 μg/ml, antibodies tested at 5, 0.5 and 0.05 μg/ml
Description: At the end of the incubation, the cells were washed and further cultivated. Medium was changed every 3 days. Infection was detected by measuring in enzyme-linked immunosorbent assay (ELISA) the levels of hepatitis B surface antigen (HBsAg) and hepatitis B e antigen (HBeAg) secreted into the culture supernatant from day 7 to 11 post-infection and by detecting HBcAg staining in an immunofluorescence assay.

[4] = tested on: 19 different HBsAg genotype D mutants; format: binding, hepatitis B virus; conditions: 5 μg/ml
[5] = tested on: antigenic loop region of the HBsAg; format: binding, hepatitis B virus; conditions: antibody at 1 μg/ml
[6] = tested on: HBV viral particles; assay: Western blot on HBV viral particles under reducing conditions; format: binding, hepatitis B virus
Excerpt: Ab4 is a comparative antibody, which is also reactive against the antigenic loop.

[7] = tested on: HBsAg (adw subtype); assay: ELISA binding of HBC34 variants to HBsAg adw antigen; parameters: species or system hepatitis B virus; conditions: Example 11, 18 variants, FIG. 21

Molecule	cccDNA measurements versus mice sacrificed 3 weeks post HBV infection [1]	binding to three HBsAg serotypes (adw, ady and ayw) [2]	neutralization of HBV infection [3]	number of the 19 HBsAg mutants bound [4]	binding to three additional peptides (SEQ ID NO 53, 54, 55) [5]	reactivity in western blot [6]	decrease of levels of circulating HBsAg ([1]; baseline to week 6 of treatment (week 9 post-infection)) [log]	effect of mutation(s) on binding to HBsAg compared with parental HBC34 [7]
C=C1[C@H](CO)[C@@H](O)C[C@@H]1n1cnc2c(=O)[nH]c(N)nc21 [entecavir, reference compound]	did not differ significantly	–	–	–	–	–	–	–
HBC34: IgG1-type fully human monoclonal antibody against HBsAg antigenic loop; VH SEQ ID NO: 41, VL SEQ ID NO: 42	did not differ significantly	binds with high affinity	neutralized completely	18	recognized with a lower signal	does not react at all	> 1	–
HBC34-v2: HBC34 variant, W107F in the CDR3 of the VH and W107A in the CDR3 of the VL (antibody, V domains shown) VH: ELQLVESGGGWVQPGGSQRLSCAASGRIFRSFYMSWVRQAPGKGLEWVATINQDGSEKLYVDSVKGRFTISRDNAKNSLFLQMNNLRVEDTAVYYCAAFSGNSGGMDVWGQGTTVSVSS VL: SYELTQPPSVSVSPGQTVSIPCSGDKLGNKNVCWFQHKPGQSPVLVIYEVKYRPSGIPERFSGSNSGNTATLTISGTQAMDEAAYFCQTADSTTVVFGGGTRLTVL	–	–	–	–	–	–	–	completely abolished
